Data from patent US20150216903A1, “COMPOUNDS FOR IMPROVED VIRAL TRANSDUCTION” (BLUEBIRD BIO, INC., priority 2012, published 2015).

What was measured:
CD34+ cells [1] = test: 7-Day liquid culture, FACS analysis after transduction with GFP+ lentivirus; type: cell-based, human
Protocol: One vial of CD34+ cells (AllCells) were thawed by incubating at 37° C. for 1-2 minutes and contents were transferred to 10 mL Stem Cell Growth Media (hereafter referred to as SCGM) in a 15-mL conical tube. Cells were spun for 5 minutes at 1500 RPM in a standard tabletop centrifuge, resuspended in 10 mL SCGM and counted on a hemacytometer. A volume correlating with an appropriate number of cells was transferred to a fresh 15-mL conical tube, and again spun for 5 minutes at 1500 RPM. Cells were resuspended to the desired cell concentration in SCGM+1× cytokines (100 ng/mL SCF, 100 ng/mL TPO, 100 ng/mL FltL, and 30 ng/mL IL-3), and plated on a sterile non-adherent surface at 37° C. in a standard humidified tissue culture incubator (5% CO2).
Pre-stimulated cells (Example 1) were counted after 18-24 hours of culture. The cells were collected and spun for 5 minutes at 1500 RPM. 1.2×10^6 pre-stimulated CD34^+ cells were resuspended in 60 uL 10× cytokines (1000 ng/mL SCF, 1000 ng/mL TPO, 1000 ng/mL FltL, and 300 ng/mL IL-3), 7.8 uL protamine sulfate, 111 uL viral supernatant, and 361.2 uL SCGM. 90 uL cell/virus suspension (about 200,000 cells) was added to each well of a standard non-adherent 96-well plate. dmPGE2 was added during this viral transduction step at a final concentration of 100 uM, 50 uM, 25 uM, 12.5 uM, 1 uM, or 0 uM.
Cells were incubated at 37° C. in a standard humidified tissue culture incubator (5% CO2).
Aliquots of 10 mM dmPGE2 in DMSO were prepared from 1 mg previously processed dmPGE2 (Cayman Chemicals). Briefly, air was pipetted into the vial of dmPGE2 until methyl acetate was evaporated. 263 uL DMSO was added to the PGE2 remaining in the vial, and aliquots of 25 uL were added to 1.5 mL Eppendorf tubes and stored at −80° C. 10× working stock solutions were prepared by serial dilution of dmPGE2 in SCGM, and were then added to cells at appropriate working concentrations, according to Table 2. Cells were then incubated at 37° C. in a standard humidified tissue culture incubator (5% CO2).
After 24 hours of culture with virus and dmPGE2, cells were washed prior to subsequent functional validation assays. Washing was performed by transferring cells to a 96-well U-bottom plate and spinning for 5 minutes at 1500 RPM in a standard tabletop centrifuge. Media was aspirated and cells were resuspended in 200 uL SCGM. Cells were spun again for 5 minutes at 1500 RPM and media was aspirated. Cells were again resuspended in 200 uL SCGM then spun for 5 minutes at 1500 RPM, and again the media was aspirated. Particular functional validation assays are described below.
Washed cells were resuspended in 200 uL SCGM+lx cytokines (as described in Example 1) and transferred to a standard 12-well non-adherent tissue culture plate containing an additional 800 uL SCGM+lx cytokines Cells were maintained for an additional 6 days in a standard humidified tissue culture incubator (5% CO2) and then subjected Vector Copy Number analysis (Example 5) and FACS analysis. For FACS analysis, cells were assayed for the presence of a virally-encoded transgene, green fluorescent protein (GFP). The frequency of the virally-labeled cells within the pool of cultured cells was quantified as the frequency of GFP+ cells within the population. The mean fluorescence intensity of labeled cells was quantified.
Tables 3A-C indicate the dose-response of dmPGE2 in promoting viral transduction of CD34+ cells for three separate experiments. CD34+ cells were thawed and pre-stimulated with SCF, TPO, FltL, and IL3, then transduced (A) with GFP+ lentivirus at a multiplicity of infection of 25, (B) with GFP+ lentivirus at a multiplicity of infection of 5, or (C) transduced with an ALD (ABCD1)-expressing lentivirus at a multiplicity of infection of 25. Cells were exposed to dmPGE2 during the viral transduction step (24-48 hours of culture). Cells were then washed and analyzed by flow cytometry and PCR after approximately 1 week in culture. […]

CD34+ cells [2] = test: Time-course and dose-response of dmPGE2 in promoting viral transduction (GFP+ lentivirus, flow cytometry); type: cell-based, human; conditions: for percentage of cells positive for GFP: MOI 25
Protocol: MCD-34+ cells were thawed and pre-stimulated with SCF, TPO, FltL and IL3, then transduced with GFP+ lentivirus at a multiplicity of infection of 25. Cells were exposed to dmPGE2 during the viral transduction step (24-25 hours of culture; 24-26 hours of culture; 24-28 hours of culture; or 24-48 hours of culture) and then washed and analyzed by flow cytometry after approximately 1 week in culture. Alternatively, cells were exposed to dmPGE2 during the pre-stimulation step (22-24 hours of culture; 23-24 hours of culture).

HSCs = conditions: published data, Goessling et al., Cell Stem Cell 2011; cited from earlier work

Structure (SMILES): CCCCC(C)(C)[C@H](O)/C=C/[C@H]1[C@H](O)CC(=O)[C@@H]1C/C=C\CCCC(=O)O [dmPGE2, 16,16-dimethyl PGE2]
- % Positive (GFP) (CD34+ cells [1]; dmPGE2 12.5 uM during transduction (24-48 hours of culture), GFP lentivirus MOI 5): 17.84%
- % Positive (GFP) (CD34+ cells [1]; dmPGE2 12.5 uM during transduction (24-48 hours of culture), GFP lentivirus MOI 25): 54.71%
- MFI (CD34+ cells [1]; dmPGE2 12.5 uM during transduction, GFP lentivirus MOI 5): 530,218.50
- MFI (CD34+ cells [1]; dmPGE2 12.5 uM during transduction, GFP lentivirus MOI 25): 759,442.75
- % Positive (GFP) (CD34+ cells [1]; dmPGE2 25 uM during transduction (24-48 hours of culture), GFP lentivirus MOI 5): 18.69%
- % Positive (GFP) (CD34+ cells [1]; dmPGE2 25 uM during transduction (24-48 hours of culture), GFP lentivirus MOI 25): 59.99%
- MFI (CD34+ cells [1]; dmPGE2 25 uM during transduction, GFP lentivirus MOI 5): 562,428.00
- MFI (CD34+ cells [1]; dmPGE2 25 uM during transduction, GFP lentivirus MOI 25): 845,691.00
- % Positive (GFP) (CD34+ cells [1]; dmPGE2 50 uM during transduction (24-48 hours of culture), GFP lentivirus MOI 5): 36.80%
- % Positive (GFP) (CD34+ cells [1]; dmPGE2 50 uM during transduction (24-48 hours of culture), GFP lentivirus MOI 25): 67.62%
- MFI (CD34+ cells [1]; dmPGE2 50 uM during transduction, GFP lentivirus MOI 5): 656,703.50
- MFI (CD34+ cells [1]; dmPGE2 50 uM during transduction, GFP lentivirus MOI 25): 977,806.75
- % Positive (GFP) (CD34+ cells [1]; dmPGE2 100 uM during transduction (24-48 hours of culture), GFP lentivirus MOI 5): 42.97%
- % Positive (GFP) (CD34+ cells [1]; dmPGE2 100 uM during transduction (24-48 hours of culture), GFP lentivirus MOI 25): 81.53%
- MFI (CD34+ cells [1]; dmPGE2 100 uM during transduction, GFP lentivirus MOI 5): 732,716.25
- MFI (CD34+ cells [1]; dmPGE2 100 uM during transduction, GFP lentivirus MOI 25): 1,513,504.00
- percentage of cells positive for GFP (CD34+ cells [2]; dmPGE2 1 uM, Pre-Stim w/PGE2 Minus 2 Hr (22-24 hours of culture)): 25.74%
- percentage of cells positive for GFP (CD34+ cells [2]; dmPGE2 1 uM, Virus and PGE2 24 Hr (24-48 hours of culture)): 32.03%
- percentage of cells positive for GFP (CD34+ cells [2]; dmPGE2 1 uM, Virus and PGE2 Plus 1 Hr (24-25 hours of culture)): 2.94%
- percentage of cells positive for GFP (CD34+ cells [2]; dmPGE2 1 uM, Virus and PGE2 Plus 2 Hr (24-26 hours of culture)): 7.17%
- percentage of cells positive for GFP (CD34+ cells [2]; dmPGE2 1 uM, Virus and PGE2 Plus 4 Hr (24-28 hours of culture)): 21.10%
- percentage of cells positive for GFP (CD34+ cells [2]; dmPGE2 12.5 uM, Pre-Stim w/PGE2 Minus 1 Hr (23-24 hours of culture)): 22.13%
- percentage of cells positive for GFP (CD34+ cells [2]; dmPGE2 12.5 uM, Pre-Stim w/PGE2 Minus 2 Hr (22-24 hours of culture)): 30.64%
- percentage of cells positive for GFP (CD34+ cells [2]; dmPGE2 12.5 uM, Virus and PGE2 24 Hr (24-48 hours of culture)): 47.42%
- percentage of cells positive for GFP (CD34+ cells [2]; dmPGE2 12.5 uM, Virus and PGE2 Plus 1 Hr (24-25 hours of culture)): 1.97%
- percentage of cells positive for GFP (CD34+ cells [2]; dmPGE2 12.5 uM, Virus and PGE2 Plus 2 Hr (24-26 hours of culture)): 5.32%
- percentage of cells positive for GFP (CD34+ cells [2]; dmPGE2 12.5 uM, Virus and PGE2 Plus 4 Hr (24-28 hours of culture)): 28.08%
- percentage of cells positive for GFP (CD34+ cells [2]; dmPGE2 25 uM, Pre-Stim w/PGE2 Minus 1 Hr (23-24 hours of culture)): 24.05%
- percentage of cells positive for GFP (CD34+ cells [2]; dmPGE2 25 uM, Pre-Stim w/PGE2 Minus 2 Hr (22-24 hours of culture)): 31.90%
- percentage of cells positive for GFP (CD34+ cells [2]; dmPGE2 25 uM, Virus and PGE2 24 Hr (24-48 hours of culture)): 50.69%
- percentage of cells positive for GFP (CD34+ cells [2]; dmPGE2 25 uM, Virus and PGE2 Plus 1 Hr (24-25 hours of culture)): 1.76%
- percentage of cells positive for GFP (CD34+ cells [2]; dmPGE2 25 uM, Virus and PGE2 Plus 2 Hr (24-26 hours of culture)): 4.76%
- percentage of cells positive for GFP (CD34+ cells [2]; dmPGE2 25 uM, Virus and PGE2 Plus 4 Hr (24-28 hours of culture)): 27.46%
- percentage of cells positive for GFP (CD34+ cells [2]; dmPGE2 50 uM, Pre-Stim w/PGE2 Minus 1 Hr (23-24 hours of culture)): 22.98%
- percentage of cells positive for GFP (CD34+ cells [2]; dmPGE2 50 uM, Pre-Stim w/PGE2 Minus 2 Hr (22-24 hours of culture)): 31.85%
- percentage of cells positive for GFP (CD34+ cells [2]; dmPGE2 50 uM, Virus and PGE2 24 Hr (24-48 hours of culture)): 54.63%
- percentage of cells positive for GFP (CD34+ cells [2]; dmPGE2 50 uM, Virus and PGE2 Plus 1 Hr (24-25 hours of culture)): 1.85%
- percentage of cells positive for GFP (CD34+ cells [2]; dmPGE2 50 uM, Virus and PGE2 Plus 2 Hr (24-26 hours of culture)): 4.23%
- percentage of cells positive for GFP (CD34+ cells [2]; dmPGE2 50 uM, Virus and PGE2 Plus 4 Hr (24-28 hours of culture)): 27.45%
- percentage of cells positive for GFP (CD34+ cells [2]; dmPGE2 100 uM, Pre-Stim w/PGE2 Minus 1 Hr (23-24 hours of culture)): 25.14%
- percentage of cells positive for GFP (CD34+ cells [2]; dmPGE2 100 uM, Pre-Stim w/PGE2 Minus 2 Hr (22-24 hours of culture)): 34.85%
- percentage of cells positive for GFP (CD34+ cells [2]; dmPGE2 100 uM, Virus and PGE2 24 Hr (24-48 hours of culture)): 76.44%
- percentage of cells positive for GFP (CD34+ cells [2]; dmPGE2 100 uM, Virus and PGE2 Plus 1 Hr (24-25 hours of culture)): 2.48%
- percentage of cells positive for GFP (CD34+ cells [2]; dmPGE2 100 uM, Virus and PGE2 Plus 2 Hr (24-26 hours of culture)): 4.02%
- percentage of cells positive for GFP (CD34+ cells [2]; dmPGE2 100 uM, Virus and PGE2 Plus 4 Hr (24-28 hours of culture)): 21.57%
- improvement of viral transduction (CD34+ cells [2]; time windows commonly used for promoting hematopoietic stem cell activity, on the order of one to two hours): unable to improve viral transduction
- promotion of viral transduction of HSCs (HSCs): unable to promote viral transduction of HSCs
